{"source": "patent US20130045239A1", "about": "“Method for Modulating the Pharmacodynamic Effect of Orally Administered Guanylate Cyclase Receptor Agonists” (Ironwood Pharmaceuticals, Inc., priority 2009, published 2013)", "type_in_all_cases": "in vivo, human", "key": {"healthy volunteers": {"system": "healthy volunteers", "assay": "Linaclotide food effect study: pharmacodynamic effect on bowel habits under fed vs fasted conditions", "experimental": "The randomized, open-label, two-period, two-sequence, crossover trial of oral linaclotide in healthy volunteers tested under fasted or fed conditions summarized herein was undertaken to determine if linaclotide is susceptible to a food effect. The study consisted of 4 stages: an 8-day to 15-day Screening Stage, two 15- to 16-day Crossover Periods (1 and 2), and a 21-day Washout Stage which was to occur between Crossover Periods 1 and 2. The doses tested in this study were 300 ug and a 1-day dose of 3000 ug at the end of Crossover Periods 1 and 2.\nThe study consisted of 4 stages: an 8-day to 15-day Screening Stage which was to take place at home and determine eligibility, two 15- to 16-day stages (Crossover Periods 1 and 2) which were to take place in a Phase 1 unit, and a 21-day Washout Stage which was to take place at home and occur between Crossover Periods 1 and 2. The individual study Stages are detailed below.\nEligible subjects were entered into the Phase 1 unit and were randomized to 1 of 2 Treatment Sequences. Sequence 1 (Fed-Fasted): During Crossover Period 1, linaclotide was to be administered immediately after a high-fat breakfast (the fed condition); during Crossover Period 2, linaclotide was to be administered after a 10-hour fast (the fasted condition). Sequence 2 (Fasted-Fed): During Crossover Period 1, linaclotide was to be administered under the fasted condition; during Crossover Period 2, linaclotide was to be administered under the fed condition.\nCrossover Period 1 lasted for 15 days and Crossover Period 2 started on Day 35, immediately after the 21-day Washout Stage, and lasted for 16 days. Subjects were to record their bowel habits in their BHD and ingest their meals at the time determined by their randomization sequence. At a specified time on each day, the information in the BHD was to be reviewed by the site staff to insure appropriate completion.\n(§1) During the Pretreatment Phase of each Crossover Period, subjects were not to receive study drug. On Day 8 of Crossover Period 1 and Day 43 of Crossover Period 2, subjects started the Treatment Phase and were to receive 300 ug linaclotide once daily for a total of 7 days. On Day 14 and 15 of Crossover Period 1, blood was to be drawn to assay for linaclotide and its active metabolite. After the study procedures were completed on Day 15, subjects were discharged home with instructions to follow the same outpatient diet that they followed during the Screening Stage and to return to the Phase 1 unit on Day 35 for Crossover Period 2. On Day 50 of Crossover Period 2, subjects were to receive a single oral dose of 3000 ug linaclotide and were discharged from the Phase 1 unit on Day 51. After subjects received the 3000 ug dose, blood was to be drawn on Day 50 and 51 to assay for linaclotide and linaclotide metabolites.\nLinaclotide was to be administered at the same time each morning with 240 cc (8 oz) of water; food was to be withheld for approximately 4 hr after dosing, and additional water was to be withheld from 1 hour before linaclotide administration until 1 hour after dosing. Under the fed condition, subjects were required to start and complete a high-fat breakfast during the 30 minutes before linaclotide administration. Under the fasted condition, linaclotide was to be administered following an overnight fast.\nAll meals and meal times were standardized during Crossover Periods 1 and 2 with the total daily calorie, fat, and fiber intake the same for each diet condition (fed and fasted). The daily quantity of these nutrients was based on the “United States Department of Agriculture (USDA) Dietary Recommendations for Americans.” Each subject received approximately 2000 total calories per day.\nLinaclotide, 300 ug, oral gelatin capsule. Linaclotide, 3000 ug (5 oral gelatin capsules of 600 ug linaclotide each), single dose.\nThe primary endpoint was the change from Pretreatment Phase to Treatment Phase for each Crossover Period in stool consistency on the BSFS scale. […]"}, "[1]": {"assay": "Linaclotide food effect study: 24-hour stool recovery", "details": "following 7 days of dosing at 300 ug per day, both fed and fasted conditions; predominately as a major linaclotide metabolite", "experimental": "As for the 24-hour stool results, approximately 3 percent of a single dose of linaclotide was recovered on average following 7 days of dosing at 300 ug per day under both fed and fasted conditions. The recovery was predominately in the form of a major linaclotide metabolite."}, "[2]": {"assay": "Linaclotide food effect study: plasma levels of linaclotide and its metabolite", "details": "for Cmax / Tmax: human, plasma, po, 3000 ug, single oral dose 3000 ug, fasted", "experimental": "as §1\nBlood samples were to be collected at 0 hour (prior to dosing) and 0.5, 1, 2, 3, 4, 6 and 24 hours post dose on Day 14 of Crossover Period 1 and on Day 50 of Crossover Period 2, for determination of the following PK parameters for linaclotide and a metabolite of linaclotide (CCEYCCNPACTGC (SEQ ID NO: 10)) (if systemic levels of linaclotide and or the metabolite are detected): maximum observed plasma concentration (Cmax), time to maximum concentration (Tmax), area under the plasma concentration time curve (AUC0-t), area under the plasma concentration time curve extrapolated to infinity (AUC0-∞), clearance relative to bioavailability (CL/F), apparent volume of distribution (Vd/F), apparent terminal half life (t1/2)."}, "[3]": {"details": "300 ug once daily, Fasted, last 4 days of treatment"}, "[4]": {"details": "300 ug once daily, Fasted, over 7 days of treatment"}, "[5]": {"details": "300 ug once daily, Fed, last 4 days of treatment"}, "[6]": {"details": "300 ug once daily, Fed, over 7 days of treatment"}, "[7]": {"details": "300 ug once daily, last 4 days of treatment"}, "[8]": {"details": "300 ug once daily, over 7 days of treatment"}}, "note": "Marks after values point to notes of the source that are not given here. Positions of bridges follow the written chain, without caps; N, C: chain ends. Residues, ends and D or L forms follow the SMILES beside them.", "data": [{"compound": "C[C@@H]1NC(=O)[C@@H]2CCCN2C(=O)[C@H](CC(N)=O)NC(=O)[C@@H]2CSSC[C@H](N)C(=O)N[C@H]3CSSC[C@H](NC1=O)C(=O)N[C@@H]([C@@H](C)O)C(=O)NCC(=O)N[C@H](C(=O)N[C@@H](Cc1ccc(O)cc1)C(=O)O)CSSC[C@H](NC(=O)[C@H](Cc1ccc(O)cc1)NC(=O)[C@H](CCC(=O)O)NC3=O)C(=O)N2", "note": "[Linaclotide, Cys Cys Glu Tyr Cys Cys Asn Pro Ala Cys Thr Gly Cys Tyr] (H-CCEYCCNPACTGCY-OH; disulfide 1-6, 2-10, 5-13)", "values": [{"measurement": "CSBM, Change from Pretreatment Mean (SEM)", "setting": "healthy volunteers; [3]", "value": "0.39 (0.293)"}, {"measurement": "SBM, Change from Pretreatment Mean (SEM)", "setting": "healthy volunteers; [3]", "value": "0.72 (0.419)"}, {"measurement": "BSFS Score, Change from Pretreatment Mean (SEM)", "setting": "healthy volunteers; 300 ug once daily, Fasted, last 4 days of treatment (Sensitivity Analysis)", "value": "1.97 (0.174)"}, {"measurement": "BSFS Score, Change from Pretreatment Mean (SEM)", "setting": "healthy volunteers; [4]", "value": "1.84 (0.177)"}, {"measurement": "CSBM, Change from Pretreatment Mean (SEM)", "setting": "healthy volunteers; [4]", "value": "1.00 (0.443)"}, {"measurement": "SBM, Change from Pretreatment Mean (SEM)", "setting": "healthy volunteers; [4]", "value": "1.50 (0.487)"}, {"measurement": "Straining Score, Change from Pretreatment Mean (SEM)", "setting": "healthy volunteers; [4]", "value": "−0.17 (0.057)"}, {"measurement": "CSBM, Change from Pretreatment Mean (SEM)", "setting": "healthy volunteers; [5]", "value": "1.00 (0.647)"}, {"measurement": "SBM, Change from Pretreatment Mean (SEM)", "setting": "healthy volunteers; [5]", "value": "2.28 (0.704)"}, {"measurement": "BSFS Score, Change from Pretreatment Mean (SEM)", "setting": "healthy volunteers; 300 ug once daily, Fed, last 4 days of treatment (Sensitivity Analysis)", "value": "2.36 (0.230)"}, {"measurement": "BSFS Score, Change from Pretreatment Mean (SEM)", "setting": "healthy volunteers; [6]", "value": "2.45 (0.159)"}, {"measurement": "CSBM, Change from Pretreatment Mean (SEM)", "setting": "healthy volunteers; [6]", "value": "4.06 (1.181)"}, {"measurement": "SBM, Change from Pretreatment Mean (SEM)", "setting": "healthy volunteers; [6]", "value": "5.94 (1.503)"}, {"measurement": "Straining Score, Change from Pretreatment Mean (SEM)", "setting": "healthy volunteers; [6]", "value": "−0.16 (0.064)"}, {"measurement": "CSBM, Difference Mean and 90 percent CI Fed-Fasted Difference", "setting": "healthy volunteers; [7]", "value": "0.61 (−0.49, 1.71)"}, {"measurement": "SBM, Difference Mean and 90 percent CI Fed-Fasted Difference", "setting": "healthy volunteers; [7]", "value": "1.56 (0.60, 2.51)"}, {"measurement": "BSFS Score, Difference Mean and 90 percent CI Fed-Fasted Difference", "setting": "healthy volunteers; 300 ug once daily, last 4 days of treatment (Sensitivity Analysis)", "value": "0.38 (−0.09, 0.86)"}, {"measurement": "BSFS Score, Difference Mean and 90% CI Fed-Fasted Difference", "setting": "healthy volunteers; [8]", "value": "0.61 (0.25, 0.98)^c"}, {"measurement": "CSBM, Difference Mean and 90% CI Fed-Fasted Difference", "setting": "healthy volunteers; [8]", "value": "3.06 (0.90, 5.21)"}, {"measurement": "SBM, Difference Mean and 90% CI Fed-Fasted Difference", "setting": "healthy volunteers; [8]", "value": "4.44 (2.22, 6.67)"}, {"measurement": "Straining Score, Difference Mean and 90% CI Fed-Fasted Difference", "setting": "healthy volunteers; [8]", "value": "0.01 (−0.12, 0.14)"}, {"measurement": "Equivalence of fasted versus fed condition on change from pretreatment BSFS Scores (primary endpoint analysis)", "setting": "healthy volunteers; 300 ug, 7 days of treatment, 90 percent CI against equivalence margins of ±0.6125", "value": "did not demonstrate equivalence"}, {"measurement": "Equivalence of fed versus fasted condition on BSFS Score (Sensitivity Analysis)", "setting": "healthy volunteers; 300 ug, last 4 days of treatment, 90 percent CI against equivalence margins of ±0.6125", "value": "did not fall within the equivalence margins"}, {"measurement": "Recovery of a single dose in 24-hour stool, on average", "setting": "[1]", "value": "approximately 3%"}, {"measurement": "Cmax", "setting": "[2]; subject 001012", "value": 0.735, "unit": "ng/mL"}, {"measurement": "Tmax", "setting": "[2]; subject 001012", "value": 2, "unit": "h"}, {"measurement": "Tmax", "setting": "[2]; subject 001019", "value": 0.5, "unit": "h"}, {"measurement": "Cmax", "setting": "[2]; subject 001019 (single measurable sample, at LLOQ)", "value": 0.212, "unit": "ng/mL"}]}, {"compound": "CCEYCCNPACTGC (Synthetically generated peptide) [linaclotide metabolite, a metabolite of linaclotide]", "values": [{"measurement": "Plasma level of linaclotide metabolite", "setting": "[2]; 300 ug linaclotide oral for 7 days of treatment, all subjects, no quantifiable levels, limit of detection=2.0 ng/ml", "value": "< 2.0", "unit": "ng/mL"}, {"measurement": "Metabolite in plasma", "setting": "[2]; after linaclotide dosing (300 ug and 3000 ug), any subject", "value": "No metabolite (SEQ ID NO: 10) was detected"}]}]}
